Reference: patent US20250154152A1, “INHIBITORS OF NAEGLERIA FOWLERI” (Wisconsin Alumni Research Foundation, priority 2023, published 2025)

Tested on: N. fowleri strain Nf69 (ATCC 30215) trophozoites
Assay: Determination of EC50 values against Naegleria fowleri (growth inhibition, CellTiter Glo, 48 h)
Assay type: cell-based
Settings: ATCC30215, N. fowleri Nf69 trophozoites, 48 h culture, 37° C., CellTiter Glo luminescence, read-out: EC50 uM against N. fowleri
How it was run: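 Axenic Nf69 trophozoites in Nelson's complete medium with 10% FBS exposed to compound, initially 20–0.375 μM, for 48 h at 37 °C, 5% CO2. Viability read by CellTiter-Glo luminescence; % growth inhibition versus controls, triplicate averages fitted for EC50, with lower ranges used for very potent compounds.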

Row | SMILES | EC50
1 | Cn1c([C@@H]2CCCN(CC3COC3)C2)nc2ccc(C#N)cc2c1=O [Compound R-14o, (R)-3-methyl-2-(1-(oxetan-3-ylmethyl)piperidin-3-yl)-4-oxo-3,4-dihydroquinazoline-6-carbonitrile] | > 10 µM
2 | O=c1c2ccccc2nc2n1CC[C@@H]1[C@H]2CCN1Cc1ccccc1 (racemic) [cis-5ff, (±)-(3aR,12bR)-3-benzyl-2,3,3a,4,5,12b-hexahydropyrrolo[3′,2′:3,4]pyrido[2,1-b]quinazolin-7(1H)-one] | > 10 µM
3 | CN(C)CCN1CCC[C@@H]2c3nc4cc(Cl)c(Cl)cc4c(=O)n3CC[C@H]21 (racemic) [trans-7oo, (±)-(4aR,13bS)-10,11-dichloro-4-(2-(dimethylamino)ethyl)-1,2,3,4,4a,5,6,13b-octahydro-8H-[1,6]naphthyridino[5,6-b]quinazolin-8-one] | 0.1 to 1 µM
4 | CN1CCO[C@H]2c3nc4ccc(Cl)cc4c(=O)n3CC[C@H]21 (racemic) [cis-5w, (±)-(4aR,13bR)-10-chloro-4-methyl-3,4,4a,5,6,13b-hexahydro-[1,4]oxazino[2′,3′:3,4]pyrido[2,1-b]quinazolin-8(2H)-one] | > 10 µM
5 | COc1cc2nc3n(c(=O)c2cc1C#N)CC[C@@H]1[C@@H]3CCCN1C (racemic) [trans-7jj, (±)-(4aR,13bS)-11-methoxy-4-methyl-8-oxo-2,3,4,4a,5,6,8,13b-octahydro-1H-[1,6]naphthyridino[5,6-b]quinazoline-10-carbonitrile] | 1 to 10 µM
6 | CN1CCC[C@@H]2c3nc4cc(-c5ccccc5)c(Cl)cc4c(=O)n3CC[C@H]21 (racemic) [trans-9b, (±)-(4aR,13bS)-10-chloro-4-methyl-11-phenyl-1,2,3,4,4a,5,6,13b-octahydro-8H-[1,6]naphthyridino[5,6-b]quinazolin-8-one] | 1 to 10 µM
7 | COc1ccc2nc3n(c(=O)c2c1)CC[C@@H]1[C@@H]3CCCN1C (racemic) [trans-5g, (±)-(4aR,13bS)-10-methoxy-4-methyl-1,2,3,4,4a,5,6,13b-octahydro-8H-[1,6]naphthyridino[5,6-b]quinazolin-8-one] | 1 to 10 µM
8 | COc1cc2nc3n(c(=O)c2cc1Cl)CC[C@H]1[C@H]3CCCN1CC(C)C (single isomer, unassigned) [trans-10h-ent-2] | 0.0001 to 0.1 µM
9 | CC(C)CN1CCC[C@@H](c2nc3cc(Cl)c(Cl)cc3c(=O)n2C)C1 [Compound R-14g, (R)-6,7-dichloro-2-(1-isobutylpiperidin-3-yl)-3-methylquinazolin-4(3H)-one] | > 10 µM
10 | Cn1c([C@H]2CCCN(CCO)C2)nc2cc(Cl)c(Cl)cc2c1=O [Compound S-14y, (S)-6,7-dichloro-2-(1-(2-hydroxyethyl)piperidin-3-yl)-3-methylquinazolin-4(3H)-one] | > 10 µM
11 | CN1CCO[C@H]2c3nc4ccccc4c(=O)n3CC[C@H]21 (racemic) [cis-5v, (±)-(4aR,13bR)-4-methyl-3,4,4a,5,6,13b-hexahydro-[1,4]oxazino[2′,3′:3,4]pyrido[2,1-b]quinazolin-8(2H)-one] | > 10 µM
12 | O=c1c2cc(Cl)c(Cl)cc2nc2n1CC[C@@H]1[C@@H]2CCCN1Cc1cnccn1 (racemic) [trans-7x, (±)-(4aR,13bS)-10,11-dichloro-4-(pyrazin-2-ylmethyl)-1,2,3,4,4a,5,6,13b-octahydro-8H-[1,6]naphthyridino[5,6-b]quinazolin-8-one] | 0.0001 to 0.1 µM
13 | CN1CCC[C@H]2c3nc4cccc(Cl)c4c(=O)n3CC[C@H]21 (racemic) [cis-5c, (±)-(4aR,13bR)-9-chloro-4-methyl-1,2,3,4,4a,5,6,13b-octahydro-8H-[1,6]naphthyridino[5,6-b]quinazolin-8-one] | > 10 µM
14 | CN1CCC[C@@H]2c3nc4cc(Cl)c(Cl)cc4c(=O)n3CC[C@H]21 (racemic) [trans-5q, (±)-(4aR,13bS)-10,11-dichloro-4-methyl-1,2,3,4,4a,5,6,13b-octahydro-8H-[1,6]naphthyridino[5,6-b]quinazolin-8-one] | 0.1 to 1 µM
15 | CC(C)(C)c1ccc(CN2CCC[C@@H]3c4nc5cc(Cl)c(Cl)cc5c(=O)n4CC[C@H]32)cc1 (racemic) [trans-7s, (±)-(4aR,13bS)-4-(4-(tert-butyl)benzyl)-10,11-dichloro-1,2,3,4,4a,5,6,13b-octahydro-8H-[1,6]naphthyridino[5,6-b]quinazolin-8-one] | > 10 µM
16 | O=c1c2cc(Cl)c(Cl)cc2nc2n1CC[C@@H]1[C@@H]2CCCN1Cc1ccccc1 (racemic) [trans-7w, (±)-(4aR,13bS)-4-benzyl-10,11-dichloro-1,2,3,4,4a,5,6,13b-octahydro-8H-[1,6]naphthyridino[5,6-b]quinazolin-8-one] | 0.1 to 1 µM
17 | COc1cc2nc3n(c(=O)c2cc1OC)CC[C@@H]1[C@H]3CCCN1C (racemic) [cis-5r, (±)-(4aR,13bR)-10,11-dimethoxy-4-methyl-1,2,3,4,4a,5,6,13b-octahydro-8H-[1,6]naphthyridino[5,6-b]quinazolin-8-one] | > 10 µM
18 | CN1CCO[C@@H]2c3nc4ccc(Cl)cc4c(=O)n3CC[C@H]21 (racemic) [trans-5w, (±)-(4aR,13bS)-10-chloro-4-methyl-3,4,4a,5,6,13b-hexahydro-[1,4]oxazino[2′,3′:3,4]pyrido[2,1-b]quinazolin-8(2H)-one] | > 10 µM
19 | Cn1c([C@H]2CCCN(CCN3CCCC3)C2)nc2cc(Cl)c(Cl)cc2c1=O [Compound S-14cc, (S)-6,7-dichloro-3-methyl-2-(1-(2-(pyrrolidin-1-yl)ethyl)piperidin-3-yl)quinazolin-4(3H)-one] | > 10 µM
20 | COc1cccc2c(=O)n3c(nc12)[C@H]1CCCN(C)[C@@H]1CC3 (racemic) [trans-5u, (±)-(4aR,13bS)-12-methoxy-4-methyl-1,2,3,4,4a,5,6,13b-octahydro-8H-[1,6]naphthyridino[5,6-b]quinazolin-8-one] | > 10 µM
21 | CN1CCC[C@H]2c3nc4cc(-c5ccccc5)c(Cl)cc4c(=O)n3CC[C@H]21 (racemic) [cis-9b, (±)-(4aR,13bR)-10-chloro-4-methyl-11-phenyl-1,2,3,4,4a,5,6,13b-octahydro-8H-[1,6]naphthyridino[5,6-b]quinazolin-8-one] | 1 to 10 µM
22 | CN1CCC[C@@H]2c3nc4cnccc4c(=O)n3CC[C@H]21 (racemic) [trans-5p, (±)-(4aR,13bS)-4-methyl-1,2,3,4,4a,5,6,13b-octahydro-8H-pyrido[3′,4′:4,5]pyrimido[2,1-f][1,6]naphthyridin-8-one] | > 10 µM
23 | COc1cc2nc3n(c(=O)c2cc1Cl)CC[C@@H]1[C@@H]3CCCN1CC1CC1 (racemic) [trans-7gg, (±)-(4aR,13bS)-10-chloro-4-(cyclopropylmethyl)-11-methoxy-1,2,3,4,4a,5,6,13b-octahydro-8H-[1,6]naphthyridino[5,6-b]quinazolin-8-one] | 0.0001 to 0.1 µM
24 | Cn1c(C2CN(CC3COC3)C2)nc2cc(Cl)c(Cl)cc2c1=O [Compound 14i, 6,7-dichloro-3-methyl-2-(1-(oxetan-3-ylmethyl)azetidin-3-yl)quinazolin-4(3H)-one] | > 10 µM
25 | Cn1c([C@@H]2CCCN(CC3COC3)C2)nc2cc(F)ccc2c1=O [Compound R-14r, (R)-7-fluoro-3-methyl-2-(1-(oxetan-3-ylmethyl)piperidin-3-yl)quinazolin-4(3H)-one] | > 10 µM
26 | Cn1c([C@@H]2CCCN(CC3COC3)C2)nc2ccc(C(F)(F)F)cc2c1=O [Compound R-14t, (R)-3-methyl-2-(1-(oxetan-3-ylmethyl)piperidin-3-yl)-6-(trifluoromethyl)quinazolin-4(3H)-one] | > 10 µM
